# Experimental data: ChEMBL document CHEMBL1138639, “Carbonic anhydrase inhibitors: inhibition of human cytosolic isozyme II and mitochondrial isozyme V with a series of benzene sulfonamide derivatives” (Bioorg Med Chem Lett, 2004)
# Target: Carbonic anhydrase 5A, mitochondrial (Homo sapiens, UniProt P35218)
# Sequence (P35218 whole entry): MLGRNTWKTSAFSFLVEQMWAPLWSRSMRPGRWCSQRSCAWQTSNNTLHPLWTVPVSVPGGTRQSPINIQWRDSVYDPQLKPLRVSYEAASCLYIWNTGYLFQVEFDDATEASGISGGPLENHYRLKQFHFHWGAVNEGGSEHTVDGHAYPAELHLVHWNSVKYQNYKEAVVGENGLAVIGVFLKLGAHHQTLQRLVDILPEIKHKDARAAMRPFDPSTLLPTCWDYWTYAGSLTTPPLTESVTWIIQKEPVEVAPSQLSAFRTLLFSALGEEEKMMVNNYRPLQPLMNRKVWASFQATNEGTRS
row,IC50 [µM],SMILES
1,9.4,Nc1ccc(S(N)(=O)=O)cc1I
2,27.6,NCc1ccc(S(N)(=O)=O)cc1 [MAFENIDE]
3,7.4,Nc1ccc(S(N)(=O)=O)cc1Cl
4,7.6,Nc1ccc(S(N)(=O)=O)cc1Br
5,0.78,NS(=O)(=O)c1cccc([N+](=O)[O-])c1
6,9.3,Nc1ccc(S(N)(=O)=O)cc1F
7,4.7,Cc1ccc(S(N)(=O)=O)cc1 [P-TOLUENESULFONAMIDE]
8,2.65,NS(=O)(=O)c1ccc(C(=O)O)cc1 [CARZENIDE]
9,32,Nc1ccc(S(N)(=O)=O)cc1 [SULFANILAMIDE]
10,44.9,NS(=O)(=O)c1nc2ccc([N+](=O)[O-])cc2s1

# Continued, molecule first:
row,SMILES,IC50 [µM]
1,NNc1ccc(S(N)(=O)=O)cc1,7.7
2,COC(=O)c1ccccc1S(N)(=O)=O,53.2
3,[H]/N=C(/N)NS(=O)(=O)c1ccc(N)cc1 [SULFAGUANIDINE],> 100
4,NS(=O)(=O)c1ccc(CO)cc1,9.3
5,NCCc1ccc(S(N)(=O)=O)cc1,42.4
6,NNc1ccccc1S(N)(=O)=O,9.6
7,Nc1nccc(Nc2ccc(S(N)(=O)=O)cc2)n1,29.9
8,N#CSc1ccc(S(N)(=O)=O)cc1,8.6
9,NS(=O)(=O)c1ccc(CCO)cc1,17
10,N/C(S)=N/Nc1ccc(S(N)(=O)=O)cc1,63.7
11,NS(=O)(=O)c1ccc([N+](=O)[O-])cc1,4.2
12,Nc1ccccc1S(N)(=O)=O,15.3

# Target: Carbonic anhydrase 2 (Homo sapiens, UniProt P00918)
row,IC50 [µM],SMILES
1,0.41,NS(=O)(=O)c1cccc([N+](=O)[O-])c1
2,0.25,NS(=O)(=O)c1nc2ccc([N+](=O)[O-])cc2s1

# The remaining lines, values behind:
row,SMILES,IC50 [µM]
1,[H]/N=C(/N)NS(=O)(=O)c1ccc(N)cc1 [SULFAGUANIDINE],> 100
2,N#CSc1ccc(S(N)(=O)=O)cc1,3.6
3,N/C(S)=N/Nc1ccc(S(N)(=O)=O)cc1,0.29
4,NS(=O)(=O)c1ccc([N+](=O)[O-])cc1,0.4
